Source: patent US10450326B2, “Thiazolopyrimidinone compounds and preparation methods and use thereof” (PEKING UNIVERSITY, priority 2015, dated 2019)
pEC50: −log10 of the molar value.

Molecular target: T1, α7 nAChR (Homo sapiens, UniProt P36544)
T1 construct: expressed in transfected cells; host or cells: Xenopus oocytes (cRNA injection)
Assay: α7 nAChR positive allosteric modulator activity assay, voltage clamp in Xenopus oocytes with 100 μM ACh
Assay type: cell-based
Details: for activity at 10 µM: at 10 μM compound, current induced by 100 μM ACh, Xenopus oocytes expressing α7 nAChR, read-out: Max Mod (%, at 10 μM); for pEC50: potentiation of current induced by 100 μM ACh, Hill equation fit
Description: The experimental process was as follows:
(1) Xenopus oocytes were injected with cRNA encoding α7 nAChR in order to express α7 nAChR on the cell membrane successfully;
(2) 100 μM ACh alone was added, and the α7 nAChR characteristic current caused by it was recorded as a control;
(5) The oocytes were incubated for 1 min with 10 μM compound, then 10 µM compound and 100 μM ACh were added simultaneously and the current induced by ACh was recorded at this time;
(6) The differences between the two currents in terms of peak intensity and duration were compared, with the ratio of peak intensity of the two currents representing the adjustment effect (Enhance Rate), in order to determine whether the compound had PAM activity, if the activity was good, then the subsequent test was carried out;
(7) Concentration gradient was set and the effects of compounds at different concentrations on the α7 nAChR characteristic current induced by 100 μM ACh were evaluated. Several determinations were carried out at the same concentration, and the results were presented in the form of “mean±standard deviation”;
(8) The EC50 (median maximum effect concentration) values and Max mod (the current amplitude caused by the maximal degree of adjustable endogenous agonist acetylcholine) values of the compounds and other activity data were obtained by Hill equation Inormalized=Emax/(1+(EC50/C)nH).
The amplitude of the peak current is only normalized by the amplitude produced by 100 μM ACh and different concentrations of LD486. […] It can be seen from FIG. 3 that the Hill equation is used to fit the dose-response curve and calculate the kinetic parameters.

T1 sequence (P36544 23-502): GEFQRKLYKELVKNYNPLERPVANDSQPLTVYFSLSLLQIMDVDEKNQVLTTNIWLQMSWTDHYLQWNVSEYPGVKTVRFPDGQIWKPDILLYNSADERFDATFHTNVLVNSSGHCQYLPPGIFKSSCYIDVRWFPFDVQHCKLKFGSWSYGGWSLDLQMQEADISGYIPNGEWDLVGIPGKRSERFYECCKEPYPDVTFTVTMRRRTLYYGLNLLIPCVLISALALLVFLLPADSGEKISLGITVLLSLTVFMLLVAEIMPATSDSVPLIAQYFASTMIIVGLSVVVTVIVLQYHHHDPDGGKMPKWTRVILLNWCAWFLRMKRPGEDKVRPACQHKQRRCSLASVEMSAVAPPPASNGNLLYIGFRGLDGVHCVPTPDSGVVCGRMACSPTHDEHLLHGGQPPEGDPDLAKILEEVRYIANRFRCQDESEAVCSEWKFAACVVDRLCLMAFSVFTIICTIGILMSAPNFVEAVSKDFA

| Structure (SMILES) | activity at 10 µM [%] | pEC50 |
| --- | --- | --- |
| Cc1ccc(-n2cnc3nc(Nc4ccc(C)c(F)c4)sc3c2=O)c(Cl)c1 [JWX-A-C0229, 6-(2-Chloro-4-methylphenyl)-2-((3-fluoro-4-methylphenyl)amino)thiazolo[4,5-d]pyrimidin-7(6H)-one] | 110 | – |
| Cc1cccc(Nc2nc3ncn(-c4c(C)cccc4Cl)c(=O)c3s2)c1 [JWX-A1211, 6-(2-Chloro-6-methylphenyl)-2-(m-tolylamino)thiazolo[4,5-d]pyrimidin-7(6H)-one] | – | 5.08 |
| Cc1ccc(Nc2nc3ncn(-c4c(C)cccc4Cl)c(=O)c3s2)cc1F [JWX-A0108, 6-(2-Chloro-6-methylphenyl)-2-((3-fluoro-4-methylphenyl)amino)thiazolo[4,5-d]pyrimidin-7(6H)-one] | – | 5.47 |
| Cc1cccc(Cl)c1-n1cnc2nc(Nc3ccccc3)sc2c1=O [JWX-A0824, 6-(2-Chloro-6-methylphenyl)-2-(phenylamino)thiazolo[4,5-d]pyrimidin-7(6H)-one] | 300 | 5.00 |
| Cc1ccc(CSc2nc3ncn(-c4c(C)cccc4Cl)c(=O)c3s2)cc1 [LYH150318-4Me, 6-(2-Chloro-6-methylphenyl)-2-((4-methylbenzyl)thio)thiazolo[4,5-d]pyrimidin-7(6H)-one] | 300 | 5.00 |
| Cc1cccc(Cl)c1-n1cnc2nc(Nc3ccc(F)c(Cl)c3)sc2c1=O [JWX-A-C0104, 6-(2-chloro-6-methylphenyl)-2-((3-chloro-4-fluorophenyl)amino)thiazolo[4,5-d]pyrimidin-7(6H)-one] | 500 | 5.00 |
| Cc1cccc(Cl)c1-n1cnc2nc(N(C)c3ccccc3)sc2c1=O [JWX-A1114, 6-(2-Chloro-6-methylphenyl)-2-(methyl(phenyl)amino)thiazolo[4,5-d]pyrimidin-7(6H)-one] | 150 | 5.00 |
| Cc1cccc(Cl)c1-n1cnc2nc(NCc3ccccc3)sc2c1=O [JWX-A1228, 6-(2-chloro-6-methylphenyl)-2-(Benzylamino)thiazolo[4,5-d]pyrimidin-7(6H)-one] | 110 | – |
| Cc1cccc(Cl)c1-n1cnc2nc(NC(=O)c3ccc(Cl)cc3)sc2c1=O [JWX-A-C1020, N-(6-(2-Chloro-6-methylphenyl)-7-oxo-6,7-dihydrothiazolo[4,5-d]pyrimidin-2-yl)-4-chlorobenzamide] | 350 | 5.00 |
| Cc1cccc(Cl)c1-n1cnc2nc(SCc3ccccc3)sc2c1=O [JWX-A1223, 6-(2-chloro-6-methylphenyl)-2-(Benzylthio)thiazolo[4,5-d]pyrimidin-7(6H)-one] | – | 5.90 |
| Cc1ccc(Nc2nc3ncn(-c4c(C)cccc4F)c(=O)c3s2)cc1F [JWX-A-C0111, 6-(2-fluoro-6-methylphenyl)-2-((3-fluoro-4-methylphenyl)amino)thiazolo[4,5-d]pyrimidin-7(6H)-one] | 110 | – |
| Cc1cccc(Cl)c1-n1cnc2nc(O)sc2c1=O [JWX-A0903, 6-(2-Chloro-6-methylphenyl)-2-hydroxythiazolo[4,5-d]pyrimidin-7(6H)-one] | 110 | – |
| COc1ccc(Sc2nc3ncn(-c4c(C)cccc4Cl)c(=O)c3s2)cc1 [LYH150909, 6-(2-Chloro-6-methylphenyl)-2-((4-methoxyphenyl)thio)thiazolo[4,5-d]pyrimidin-7(6H)-one] | 110 | – |
| CCCNc1nc2ncn(-c3c(C)cccc3Cl)c(=O)c2s1 [JWX-A1229, 6-(2-Chloro-6-methylphenyl)-2-(n-propylamino)thiazolo[4,5-d]pyrimidin-7(6H)-one] | 110 | – |
| Cc1cccc(Cl)c1-n1cnc2nc(Nc3cccc(Br)c3)sc2c1=O [JWX-A1113, 6-(2-chloro-6-methylphenyl)-2-((3-Bromophenyl)amino)-thiazolo[4,5-d]pyrimidin-7(6H)-one] | 200 | 5.00 |
| Cc1cccc(Cl)c1-n1cnc2nc(Nc3cccc(OC(F)(F)F)c3)sc2c1=O [JWX-A-C0907, 6-(2-Chloro-6-methylphenyl)-2-((3-(trifluoromethoxy)phenyl)amino)thiazolo[4,5-d]pyrimidin-7(6H)-one] | 150 | 5.00 |
| CSc1nc2nnn(-c3c(Cl)cccc3Cl)c(=O)c2s1 [LD496, 3-(2,6-Dichlorophenyl)-6-(methylthio) thiazolo[4,5-d][1,2,3]triazin-4(3H)-one] | 110 | – |
| Cc1cccc(Cl)c1-n1cnc2nc(SCc3ccc(C(F)(F)F)cc3)sc2c1=O [LYH150409-4CF3, 6-(2-Chloro-6-methylphenyl)-2-((4-(trifluoromethyl)benzyl)thio)thiazolo[4,5-d]pyrimidin-7(6H)-one] | 140 | 5.00 |
| Cc1ccccc1CSc1nc2ncn(-c3c(C)cccc3Cl)c(=O)c2s1 [LYH150325-2Me, 6-(2-Chloro-6-methylphenyl)-2-((2-methylbenzyl)thio)thiazolo[4,5-d]pyrimidin-7(6H)-one] | 370 | 5.00 |
| Cc1cc(C)cc(Nc2nc3ncn(-c4c(C)cccc4Cl)c(=O)c3s2)c1 [JWX-A-C1017, 6-(2-Chloro-6-methylphenyl)-2-((3,5-dimethylphenyl)amino)thiazolo[4,5-d]pyrimidin-7(6H)-one] | – | 5.30 |
| Cc1cccc(Cl)c1-n1cnc2nc(Nc3cccc(Cl)c3)sc2c1=O [JWX-A1116, 6-(2-Chloro-6-methylphenyl)-2-((3-chlorophenyl)amino)thiazolo[4,5-d]pyrimidin-7(6H)-one] | 300 | 5.00 |
| Cc1ccccc1Nc1nc2ncn(-c3c(C)cccc3Cl)c(=O)c2s1 [JWX-A0602, 6-(2-Chloro-6-methylphenyl)-2-(o-tolylamino)thiazolo[4,5-d]pyrimidin-7(6H)-one] | 300 | 5.00 |
| Cc1cccc(Cl)c1-n1cnc2nc(Nc3ccccn3)sc2c1=O [JWX-A0828, 6-(2-Chloro-6-methylphenyl)-2-(pyridin-2-ylamino)thiazolo[4,5-d]pyrimidin-7(6H)-one] | 110 | – |
| Cc1cccc(Cl)c1-n1cnc2nc(Nc3cccc(F)c3)sc2c1=O [JWX-A1214, 6-(2-Chloro-6-methylphenyl)-2-((3-fluorophenyl)amino)thiazolo[4,5-d]pyrimidin-7(6H)-one] | 450 | 5.12 |
| Cc1nc(Nc2nc3ncn(-c4c(C)cccc4Cl)c(=O)c3s2)cc(N2CCN(CCO)CC2)n1 [JWX-A0728, 6-(2-Chloro-6-methylphenyl)-2-((6-(4-(2-hydroxyethyl)piperazin-1-yl)-2-methylpyrimidin-4-yl)amino)thiazolo[4,5-d]pyrimidin-7(6H)-one] | 110 | – |
| Cc1cc(C)c(-n2cnc3nc(Nc4ccncc4)sc3c2=O)c(C)c1 [LD293, 6-Mesityl-2-(pyridin-4-ylamino)thiazolo[4,5-d]pyrimidin-7(6H)-one] | 110 | – |
| Cc1cccc(Cl)c1-n1cnc2nc(Sc3ccccc3)sc2c1=O [LYH151120, 6-(2-Chloro-6-methylphenyl)-2-(phenylthio)thiazolo[4,5-d]pyrimidin-7(6H)-one] | 380 | 5.00 |
| Cc1cccc(Cl)c1-n1cnc2nc(Nc3ccc(Br)cc3)sc2c1=O [JWX-A1105, 6-(2-chloro-6-methylphenyl)-2-((4-Bromophenyl)amino)-thiazolo[4,5-d]pyrimidin-7(6H)-one] | 150 | 5.00 |
